Measurements taken from patent US5077195A, “Polypeptides complementary to peptides or proteins having an amino acid sequence or nucleotide coding sequence at least partially known and methods of design therefor” (Board of Reagents, The University of Texas System, priority 1986, dated 1991).
Where “and” joins values, the source holds several entries; their conditions need not be identical. Equal entries are not always repeated. Blank lines part the entries; values can stand above or below the compound they belong to. Where no end group is shown, it is not given here.

Columns and labels:
LHRH = LHRH (Homo sapiens, UniProt P01148); assay: Reverse hemolytic plaque assay, LHRH-stimulated LH release from pituitary cells; format: cell-based
Experimental: A reverse hemolytic plaque assay (Smith, et al.), Method in Enzymology, 124, p.
Plaques were analyzed by determining plaque area with an image analysis (Bioquant or Image Technology Corp. Model 300) of 125×-500× microscopic enlargements.

ACTH (1-24) = molecular target: T1, ACTH (1-24) (Homo sapiens, UniProt P01189); assay: ELISA binding of ACTH to HTCA-coated microtiter wells
T1 construct: 10 ug synthetic ACTH (1-24) in PBS-Tween buffer; purchased Organon (West Orange, N.J.); host or cells: chemical synthesis
Experimental: From 1 to 25 micrograms (ug) per well of HTCA or insulin in carbonate-bicarbonate coating buffer were added to 96 well round bottom microtiter plates and incubated at 4° C. for 8 hr. The plates were then washed with phosphate buffered saline (PBS)-Tween 20 (Sigma Chemical Co., St. Louis, Mo.) buffer.
To the insulin-coated wells and to some of the HTCA-coated wells was added 10 ug synthetic ACTH (1-24) in PBS-Tween buffer. Control wells (HTCA alone) contained only PBS-Tween. The plates were incubated at room temperature for 2 hr. and then washed three times with PBS-Tween buffer. Rabbit antisera directed against the amide of synthetic ACTH 1-13 (Accurate Biochemicals, Westbury N.Y.) was added to each well and the plates were incubated for 1 hr at room temperature. Following 3 washes with PBS-Tween buffer, alkaline phosphatase-conjugated goat anti-rabbit Ig G (Miles Laboratories, Elkharbt, Ind.) in PBS-Tween buffer (1:300 dilution) was added. After inculation at room temperature for 1 hr, the plates were washed three times with PBS-Tween buffer and each well was treated with 200 microliters (ul) of p-nitrophenyl phosphate (1 mg/ml in carbonate-bicarbonate buffer) for 11/2 hr. at room temperature. The enzymatic reaction was then stopped by the addition of 3N NaOH (50 ul) to each well and the optical absorbance of p-nitrophenol the alkaline phosphatase product, was measured at 405 nm. The ACTH bound to the coated microtiter wells was measured by this enzyme-linked immunoabsorbent assay (ELISA).
A microtiter plate was prepared and treated generally as described above but was coated with 3.7 nmol/well HTCA. To each coated well was added a solution of 3.7 nmol ACTH combined with the amounts of HTCA designated on the abscissa in FIG. 4.

^125 I-ACTH = molecular target: T2, ^125 I-ACTH (Homo sapiens, UniProt P01189); assay: Solid-phase binding of ^125 I-ACTH to 5'-3' and 3'-5' complementary peptides; conditions: wells coated 2 mg/ml
T2 construct: ACTH plates+immunized rabbit immunoglobulin
T2 sequence (P01189 138-176 limits assumed): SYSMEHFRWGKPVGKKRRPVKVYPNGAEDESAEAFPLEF
Experimental: A solid-phase binding assay was used to determine the ability of both the 5'-to-3' and the 3'-to-5'-complementary-RNA-strand peptides (see Examples 1A and 1C) to bind ^125 I-ACTH. The peptides were diluted in phosphate-buffered saline (140 mM-NaCl/3 mM-KCl/0.1% NaN3 /20 mM-phosphate buffer, pH 7.4) to 2 mg/ml, and 0.2 ml/well was placed into poly(vinyl chloride) micro-titre plates (Becton and Dickinson, Oxnard, CA, U.S.A.). After 18 h at 4° C., unbound peptide was removed by washing three times with phosphate-buffered saline containing 0.1% bovine serum albumin (Sigma Chemical Co., St. Louis, MO, U.S.A.). ^125 I-ACTH was diluted to various concentrations with phosphate-buffered saline containing 0.1% bovine serum albumin and incubated in peptide-coated wells for 60 minutes at 4° C. […] After incubation, unbound radiolabel was washed out with phosphate-buffered saline containing 0.1% bovine serum albumin, and the radioactivity of individual wells was measured by gamma-radiation counting. The amount of specifically bound radioactivity was determined by blocking ^125 I-ACTH binding with unlabelled ACTH. Additional controls included coating wells with insulin or bovine serum albumin (2 mg/ml) before the addition of the ^125 I-ACTH.

I^125 ACTH (1-39) = molecular target: T3, I^125 ACTH (1-39) (Homo sapiens, UniProt P01189); assay: ^125 I-ACTH binding to peptide-coated microtiter wells; conditions: for CPM bound ^125 I-ACTH: Table 10; for CPM Bound ^125 I-ATCH: Table 11
T3 construct: I^125 ACTH (1-39) (New England Nuclear Boston, MA); purchased New England Nuclear (Boston, MA)
T3 sequence (P01189 138-176 limits assumed): T2 sequence (P01189 138-176 limits assumed)
Experimental: Utilizing techniques described in Example 1B, polyvinyl microtiter wells were coated with 3'-5' HTCA from a 1 mM solution thereof or with BSA.
The BSA and 3'-5' HTCA coated wells were washed and then treated with one of three solutions of I^125 ACTH (1-39) (New England Nuclear Boston, MA) having different concentrations. After a forty five minute incubation period the solution was removed and the microtiter wells extensively washed. The microtiter wells were separated and assayed for iodine^125content in a Beckman Gamma 5500 gamma counter. Bound ^125 I-ACTH was measured in duplicate at three concentrations in the absence and presence of excess unlabelled ACTH.
Utilizing the cRNA sequence and HTCA sequence shown in Table 8 of Example 1A, a series of peptides having a carboxy-terminal portion of the HTCA amino acid were synthesized. A pentamer (5-mer) contained the amino acid sequence: H2 N-Phe-His-Gly-Val-Arg-COOH. A decamer (10-mer) contained the amino acid sequence: H2 N-[…]COOH. A twenty membered peptide (20-mer) contained the amino acids sequence: H2 N-[…] Val-Arg-COOH. Each of thes peptides was used to coat microtiter wells and the coated wells tested for the ability to bind ^125 I-ACTH as described in Example 1C.
A 24-mer HTCA variant (R-HTCA) with reversed amino acid sequence directionality (amino-terminal and carboxy-terminal ends being reversed) was synthesized and had the following sequence: H2 N-[…] Arg-His-Leu-His-Val-Gly-COOH. The well-coating and ^125 I-ACTH binding procedures were performed as described in Example 1-C and the resultant data shown in Table 11.

[1] = conc ^125 I-ATCH, + excess ACTH

Compound: SRAQSIGPVL [5CA-LHRH, LEU--VAL--PRO--GLY--ILE--SER--GLN--ALA--ARG--SER]
plaque area, percentage response to control assay (LHRH; 5CA-LHRH alone 10^-5 M, Exp. 3): 2.7%
plaque area, percentage response to control assay (LHRH; 5CA-LHRH alone 10^-6 M, Exp. 3): 0.5%
plaque area, percentage response to control assay (LHRH; 5CA-LHRH alone 10^-7 M, Exp. 3): 0.5%
plaque area, percentage response to control assay (LHRH; 5 × 10^-10 M LHRH + 10^-4 M, Exp. 1 (Pre)): 77%
plaque area, percentage response to control assay (LHRH; LHRH + 10^-4 M, Exp. 2 (No)): 61%
plaque area, percentage response to control assay (LHRH; LHRH + 10^-4 M, Exp. 4 (Pre)): 52%
plaque area, percentage response to control assay (LHRH; LHRH + 10^-4 M, Exp. 5 (No)): 52%
plaque area, percentage response to control assay (LHRH; LHRH + 10^-5 M, Exp. 1 (Pre)): 82%
plaque area, percentage response to control assay (LHRH; LHRH + 10^-5 M, Exp. 2 (No)): 52%
plaque area, percentage response to control assay (LHRH; LHRH + 10^-5 M, Exp. 3 (Pre)): 68%
plaque area, percentage response to control assay (LHRH; LHRH + 10^-5 M, Exp. 4 (Pre)): 63%
plaque area, percentage response to control assay (LHRH; LHRH + 10^-5 M, Exp. 5 (No)): 70%
plaque area, percentage response to control assay (LHRH; LHRH + 10^-6 M, Exp. 1 (Pre)): 110%
plaque area, percentage response to control assay (LHRH; LHRH + 10^-6 M, Exp. 2 (No)): 74%
plaque area, percentage response to control assay (LHRH; LHRH + 10^-6 M, Exp. 3 (Pre)): 98%
plaque area, percentage response to control assay (LHRH; LHRH + 10^-6 M, Exp. 4 (Pre)): 81%
plaque area, percentage response to control assay (LHRH; LHRH + 10^-6 M, Exp. 5 (No)): 81%
plaque area, percentage response to control assay (LHRH; LHRH + 10^-7 M, Exp. 1 (Pre)): 101%
plaque area, percentage response to control assay (LHRH; LHRH + 10^-7 M, Exp. 2 (No)): 74%
plaque area, percentage response to control assay (LHRH; LHRH + 10^-7 M, Exp. 3 (Pre)): 88%
plaque area, percentage response to control assay (LHRH; LHRH + 10^-7 M, Exp. 4 (Pre)): 78%
plaque area, percentage response to control assay (LHRH; LHRH + 10^-7 M, Exp. 5 (No)): 115%
plaque area, percentage response to control assay (LHRH; LHRH + 10^-8 M, Exp. 1 (Pre)): 105%
plaque area, percentage response to control assay (LHRH; LHRH + 10^-8 M, Exp. 2 (No)): 83%
plaque area, percentage response to control assay (LHRH; LHRH + 10^-8 M, Exp. 4 (Pre)): 96%
plaque area, percentage response to control assay (LHRH; LHRH + 10^-8 M, Exp. 5 (No)): 92%
plaque area, percentage response to control assay (LHRH; LHRH + 10^-9 M, Exp. 1 (Pre)): 119%
plaque area, percentage response to control assay (LHRH; LHRH + 10^-9 M, Exp. 2 (No)): 84%
plaque area, percentage response to control assay (LHRH; LHRH + 10^-9 M, Exp. 4 (Pre)): 95%
plaque area, percentage response to control assay (LHRH; LHRH + 10^-9 M, Exp. 5 (No)): 123%

Compound: insulin: control coating protein [reference compound]
binding of ACTH (1-24) to coated microtiter wells (in words) (ACTH (1-24); 10 ug ACTH, ELISA): not by insulin coated microtiter wells
binding on control plates relative to binding to complementary peptide plates (^125 I-ACTH): less than 5%

Compound: RVGHFVEAPALRHALLPARHLHVG [R-HTCA]
binding of ^125 I-ACTH to coated wells (in words) (I^125 ACTH (1-39)): significant affinity for ACTH
CPM Bound ^125 I-ATCH (I^125 ACTH (1-39); 1:9 dil. ^125 I-ATCH): 1,101 CPM and 1,161 CPM
CPM Bound ^125 I-ATCH (I^125 ACTH (1-39); 1:9 dil. ^125 I-ATCH, + Excess ACTH): 65 CPM and 69 CPM
CPM Bound ^125 I-ATCH (I^125 ACTH (1-39); conc ^125 I-ATCH): 10,392 CPM and 10,709 CPM

Compound: C[C@H](N)C(=O)NCC(=O)N[C@H]1CSSC[C@@H](C(=O)O)NC(=O)[C@H](CO)NC(=O)[C@H]([C@@H](C)O)NC(=O)[C@H](Cc2ccccc2)NC(=O)[C@H]([C@@H](C)O)NC(=O)[C@H](CCCCN)NC(=O)[C@H](Cc2c[nH]c3ccccc23)NC(=O)[C@H](Cc2ccccc2)NC(=O)[C@H](Cc2ccccc2)NC(=O)[C@H](CC(N)=O)NC(=O)[C@H](CCCCN)NC1=O [Somatostatin, reference compound]
plaque area, percentage response to control assay (LHRH; 5 × 10^-10 M LHRH + Somatostatin 10^-4 M, Exp. 1 (Pre)): 103%

More lines, now with the values ahead:

ACTH-HTCA binding that was specific (ACTH (1-24); 3.7 nmol/well HTCA coating, competition with soluble HTCA): about 90%
Kd (ACTH (1-24); wells coated with 3.7 nmol/well HTCA, 3.7 nmol ACTH, read-out: Kd (Scatchard analysis) of ACTH-HTCA binding): 1900 nM
Compound: GVHLHRAPLLAHRLAPAEVFHGVR [HTCA]

CPM bound ^125 I-ACTH (I^125 ACTH (1-39); 1:3 dilution ^125 I-ATCH): 613 CPM and 625 CPM
Compound: HRAPLLAHRLAPAEVFHGVR [20-mer]

CPM bound ^125 I-ACTH (I^125 ACTH (1-39); conc ^125 I-ATCH): 8,927 CPM and 9,072 CPM
CPM bound ^125 I-ACTH (I^125 ACTH (1-39); [1]): 345 CPM and 350 CPM
Compound: APAEVFHGVR [10-mer]

CPM bound ^125 I-ACTH (I^125 ACTH (1-39); 1:3 dilution ^125 I-ATCH): 3,514 CPM and 3,655 CPM
CPM bound ^125 I-ACTH (I^125 ACTH (1-39); 1:3 dilution ^125 I-ATCH, + excess ACTH): 97 CPM and 95 CPM
CPM bound ^125 I-ACTH (I^125 ACTH (1-39); 1:9 dilution ^125 I-ATCH): 995 CPM and 993 CPM
CPM bound ^125 I-ACTH (I^125 ACTH (1-39); [1]): 233 CPM and 245 CPM
Compound: FHGVR [5-mer, H2 N-Phe-His-Gly-Val-Arg-COOH]
